Reference: PubChem BioAssay (NCI)
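Method: 48-hour compound exposure of cells in 96-well plates, five concentrations, linear interpolation of endpoints. TGI denotes the concentration required for complete inhibition of growth.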

Tests used:
Assay in all cases: NCI tumour cell line growth inhibition, 48 h
[1] = tested on: 786-0 renal
[2] = tested on: A498 renal
[3] = tested on: A549 NSCLC
[4] = tested on: ACHN renal
[5] = tested on: BT-549 breast
[6] = tested on: CAKI-1 renal
[7] = tested on: CCRF-CEM leukemia
[8] = tested on: COLO 205 colon
[9] = tested on: DU-145 prostate
[10] = tested on: EKVX NSCLC
[11] = tested on: HCC-2998 colon
[12] = tested on: HCT-116 colon
[13] = tested on: HCT-15 colon
[14] = tested on: HL-60(TB) leukemia
[15] = tested on: HOP-62 NSCLC
[16] = tested on: HOP-92 NSCLC
[17] = tested on: HS 578T breast
[18] = tested on: HT29 colon
[19] = tested on: IGROV1 ovarian
[20] = tested on: K-562 leukemia
[21] = tested on: KM12 colon
[22] = tested on: LOX IMVI melanoma
[23] = tested on: M14 melanoma
[24] = tested on: MALME-3M melanoma
[25] = tested on: MCF7 breast
[26] = tested on: MDA-MB-231 breast
[27] = tested on: MDA-MB-435
[28] = tested on: MDA-N
[29] = tested on: MOLT-4 leukemia
[30] = tested on: NCI-H226 lung
[31] = tested on: NCI-H23 lung
[32] = tested on: NCI-H460 lung
[33] = tested on: NCI-H522 lung
[34] = tested on: NCI/ADR-RES ovarian
[35] = tested on: OVCAR-3 ovarian
[36] = tested on: OVCAR-5 ovarian
[37] = tested on: OVCAR-8 ovarian
[38] = tested on: PC-3 prostate
[39] = tested on: RPMI-8226 leukemia
[40] = tested on: RXF 393 renal
[41] = tested on: SF-268 CNS
[42] = tested on: SF-295 CNS
[43] = tested on: SF-539 CNS
[44] = tested on: SK-MEL-28 melanoma
[45] = tested on: SK-MEL-5 melanoma
[46] = tested on: SK-OV-3 ovarian
[47] = tested on: SNB-19 CNS
[48] = tested on: SNB-75 CNS
[49] = tested on: SR leukemia
[50] = tested on: SW-620 colon
[51] = tested on: TK-10 renal
[52] = tested on: U251 CNS
[53] = tested on: UACC-257 melanoma
[54] = tested on: UACC-62 melanoma
[55] = tested on: UO-31 renal

Measured: TGI

O=P(O)(O)C(NCC(O)CN1CCOCC1)P(=O)(O)O (stereo not given)
> 100 µM: all assays above
